Data on two compounds can be found in article PMC8192780 (2021).

SMILES strings stand for the structures.

For assay [1], the system named is Chili P1A (Tr3) (RNA, aptamer) GGCUAGCUGGAGGGGCGCCAGUUCGCUGGUGGUUGGGUGCGGUCAGCUAGCC
Description: fluorescence activation. The note with it: K+ 125 mM, Mg2+ 5 mM; 40 mM HEPES pH 7.5; 1 µM RNA and ligand; slower maturation than parent.

For assay [2], the system named is Chili P1-3 (Tr6) (RNA, aptamer) GGACUGGAGGGGCGCCAGUUCGCUGGUGGUUGGGUGCGGUCGGUCC
Description: fluorescence activation. The settings on record: K+ 125 mM, Mg2+ 5 mM; 40 mM HEPES pH 7.5; 1 µM RNA and ligand; >80% of parent.

Assay [3] relates to Chili P1-1 (Tr4) (RNA, aptamer) GGCAGCUGGAGGGGCGCCAGUUCGCUGGUGGUUGGGUGCGGUCGGCUGCC
Description: fluorescence activation. The note with it: K+ 125 mM, Mg2+ 5 mM; 40 mM HEPES pH 7.5; 1 µM RNA and ligand; >80% of parent.

Assay [4] concerns Chili P1C (Tr2) (RNA, aptamer) GGCUAGCCGGAGGGGCGCCAGUUCGCUGGUGGUUGGGUGCGGUCGGCUAGCC
Description: fluorescence activation. The settings on record: K+ 125 mM, Mg2+ 5 mM; 40 mM HEPES pH 7.5; 1 µM RNA and ligand; slower maturation than parent.

Assay [5] concerns Chili P1-2 (Tr5) (RNA, aptamer) GGAGCUGGAGGGGCGCCAGUUCGCUGGUGGUUGGGUGCGGUCGGCUCC
Description: fluorescence activation. The note with it: K+ 125 mM, Mg2+ 5 mM; 40 mM HEPES pH 7.5; 1 µM RNA and ligand; >80% of parent.

Assay [6] deals with circularly permuted Chili aptamer (Tr10) (RNA, aptamer) GGGUGCGGUCAGUCCGGAAGGACUGGAGGGGCGCCAGUUCGCUGGUGGUU
In words: fluorescence activation. The note with it: K+ 125 mM, Mg2+ 5 mM; 40 mM HEPES pH 7.5; 75% of P1A fluorescence enhancement.

The subject of assay [7] is Parent Chili (Tr1) (RNA, aptamer) GGCUAGCUGGAGGGGCGCCAGUUCGCUGGUGGUUGGGUGCGGUCGGCUAGCC
In words: X-ray crystallography. The note with it: K+ 50 mM, Mg2+ 5 mM, 10 mM HEPES pH 8.0, then MES pH 5.4-5.8, spermine, PEG 400.

Assay [8] relates to Chili G15A/C40U (Tr14) (RNA, aptamer) GGCUAGCUGGAGGGACGCCAGUUCGCUGGUGGUUGGGUGUGGUCGGCUAGCC
In words: absorbance and fluorescence. The settings on record: K+ 125 mM, Mg2+ 5 mM; 40 mM HEPES pH 7.5; 5 µM RNA and ligand; binding site only partially restored.

For assay [9], the system named is Chili C40U (Tr13) (RNA, aptamer) GGCUAGCUGGAGGGGCGCCAGUUCGCUGGUGGUUGGGUGUGGUCGGCUAGCC
Description: absorbance and fluorescence. The settings on record: K+ 125 mM, Mg2+ 5 mM; 40 mM HEPES pH 7.5; 5 µM RNA and ligand; 30% reduced fluorescence.

The test system of assay [10] is c7G15 Chili with r4CI at 46 (R3 ligated to R5) (RNA, aptamer, 7-deazaguanine (c7G) at 15; 4-cyanoindole ribonucleoside (r4CI) replaces G46; 3'-phosphate on printed 3' fragment) GGCUAGCUGGAGGGGCGCCAGUUCGCUGGUGGUUGGGUGCGGUCGGCUAGCC
In words: FRET from r4CI to ligand. The settings on record: K+ 125 mM, Mg2+ 5 mM; 40 mM HEPES pH 7.5.

For assay [11], the system named is Chili G15A (Tr12) (RNA, aptamer) GGCUAGCUGGAGGGACGCCAGUUCGCUGGUGGUUGGGUGCGGUCGGCUAGCC
In words: absorbance and fluorescence. The note with it: K+ 125 mM, Mg2+ 5 mM; 40 mM HEPES pH 7.5; 5 µM RNA and ligand.

Assay [12] has as its system c7G15 Chili with r4CI at 34 (R3 ligated to R4) (RNA, aptamer, 7-deazaguanine (c7G) at 15; 4-cyanoindole ribonucleoside (r4CI) replaces U34; 3'-phosphate on printed 3' fragment) GGCUAGCUGGAGGGGCGCCAGUUCGCUGGUGGUUGGGUGCGGUCGGCUAGCC
In words: FRET from r4CI to ligand. The settings on record: K+ 125 mM, Mg2+ 5 mM; 40 mM HEPES pH 7.5.

Assay [13] relates to c7G15-modified Chili (R3 ligated to R2) (RNA, aptamer, 7-deazaguanine (c7G) at 15; 3'-phosphate on printed 3' fragment) GGCUAGCUGGAGGGGCGCCAGUUCGCUGGUGGUUGGGUGCGGUCGGCUAGCC
Description: absorbance and fluorescence. The note with it: K+ 125 mM, Mg2+ 5 mM; 40 mM HEPES pH 7.5; 10 µM RNA and ligand (absorbance).

Assay [14] has as its system Parent Chili (Tr1) (RNA, aptamer) GGCUAGCUGGAGGGGCGCCAGUUCGCUGGUGGUUGGGUGCGGUCGGCUAGCC
Description: fluorescence activation. The settings on record: 40 mM HEPES pH 7.5.

With `COc1cc(/C=C2\N=C(C)N(c3ccc([N+](C)(C)C)cc3)C2=O)cc(OC)c1O`, the binding entry in assay [1], in assay [2], in assay [3], in [4], in assay [5] and in assay [6] was “yes” each time. For the same compound, the binding result in [7] (2.95 Å) is on record as “yes”.
`COc1cc(/C=C2N=C(/C=N/O)N(c3ccc([N+](C)(C)C)cc3)C\2=O)cc(OC)c1O`: the binding result in assay [8] is recorded as “yes”; in assay [9] it was “yes”; in assay [10], “no”; in assay [11], “no”; in assay [12], “no”; in [13], “no”. The binding result in [14] (Na+ (replaces K+, 125 mM), 25% residual intensity against K+) was “yes”; in [14] (Tl+ (replaces K+, 125 mM), intensity preserved against K+), “yes”; in assay [7] (2.25 Å) it was “yes”.
